Source: ChEMBL document CHEMBL5543084, “Development of cannabidiol derivatives as potent broad-spectrum antibacterial agents with membrane-disruptive mechanism” (Eur J Med Chem, 2024)
≈ marks a conversion by molar mass, not a printed value.

How the values were obtained:
[1] = Hemolytic activity against rabbit blood cells incubated for 1 hr relative to control; assay type: toxicity, cell-based, Oryctolagus cuniculus, Erythrocyte; settings: rabbit blood cells (erythrocytes)
[2] = tested on: Escherichia coli; assay: Antibacterial activity against Escherichia coli ATCC 25922 assessed as inhibition of bacterial growth incubated for 24 hrs by broth dilution method; assay type: functional
[3] = tested on: Staphylococcus aureus; assay: Drug resistance, ratio of MIC for Staphylococcus aureus NCTC 10442 after 21 passages to MIC for Staphylococcus aureus NCTC 10442 during first exposure; assay type: functional
[4] = tested on: Escherichia coli; assay: Bactericidal activity against Escherichia coli ATCC 25922 assessed as bacterial reduction at 8 time of MIC concentration incubated for 2 hrs by time-kill assay; assay type: functional
[5] = tested on: Klebsiella pneumoniae; assay: Antibacterial activity against Klebsiella pneumoniae ATCC 10031 assessed as inhibition of bacterial growth incubated for 24 hrs by broth dilution method; assay type: functional
[6] = tested on: Staphylococcus aureus; assay: Antibacterial activity against methicillin-resistant Staphylococcus aureus NCTC 10442 assessed as inhibition of bacterial growth incubated for 24 hrs by broth dilution method; assay type: functional
[7] = tested on: Staphylococcus aureus; assay: Antibacterial activity against methicillin-resistant Staphylococcus aureus N315 assessed as inhibition of bacterial growth incubated for 24 hrs by broth dilution method; assay type: functional
[8] = tested on: Staphylococcus aureus; assay: Antibacterial activity against Staphylococcus aureus ATCC 29213 assessed as inhibition of bacterial growth incubated for 24 hrs by broth dilution method; assay type: functional
[9] = tested on: Acinetobacter baumannii; assay: Antibacterial activity against Acinetobacter baumannii R2889 assessed as inhibition of bacterial growth incubated for 24 hrs by broth dilution method; assay type: functional
[10] = tested on: Acinetobacter baumannii; assay: Antibacterial activity against Acinetobacter baumannii ATCC 17978 assessed as inhibition of bacterial growth incubated for 24 hrs by broth dilution method; assay type: functional
[11] = tested on: Pseudomonas aeruginosa; assay: Antibacterial activity against Pseudomonas aeruginosa ATCC 9027 assessed as inhibition of bacterial growth incubated for 24 hrs by broth dilution method; assay type: functional
[12] = tested on: Klebsiella pneumoniae; assay: Antibacterial activity against Klebsiella pneumoniae ATCC 14581 assessed as inhibition of bacterial growth incubated for 24 hrs by broth dilution method; assay type: functional
[13] = tested on: Pseudomonas aeruginosa; assay: In vivo antibacterial activity against Pseudomonas aeruginosa ATCC 9027 infected C57BL6 mouse corneal infection model assessed as reduction in bacterial burden at 3 mg/ml, TOP 4 times in a day for 2 consecutive days; assay type: functional; settings: time 2 day
[14] = tested on: Staphylococcus aureus; assay: In vivo antibacterial activity against Staphylococcus aureus ATCC 29213 infected C57BL6 mouse corneal infection model assessed as reduction in bacterial burden at 50 mg/ml, TOP 4 times in a day for 3 consecutive days; assay type: functional; settings: time 3 day

SMILES | HC50 at 1 h [1] | MIC [2] | Ratio [3] | Activity [4] | MIC [5] | MIC [6] | MIC [7] | MIC [8] | MIC [9] | MIC [10] | MIC [11] | MIC [12] | Activity [13] | Activity [14]
CC1(C)S[C@@H]2[C@H](NC(=O)[C@H](N)c3ccc(O)cc3)C(=O)N2[C@H]1C(=O)O [AMOXICILLIN] | > 200 µg/mL | 6.25 µg/mL (≈ 17.1 µM) | 8 | 2.9 log10FFU/ml | – | – | – | – | – | – | – | – | – | –
C=C(C)[C@@H]1CCC(C)=C[C@H]1c1c(OCCCCI)cc(CCCCC)cc1OCCCCI | > 200 µg/mL | > 100 µg/mL | – | – | > 50 µg/mL | > 50 µg/mL | > 50 µg/mL | > 50 µg/mL | > 50 µg/mL | > 50 µg/mL | > 50 µg/mL | > 50 µg/mL | – | –
C=C(C)[C@@H]1CCC(C)=C[C@H]1c1c(OCCCBr)cc(CCCCC)cc1OCCCBr | > 200 µg/mL | > 50 µg/mL | – | – | > 50 µg/mL | > 50 µg/mL | > 50 µg/mL | > 50 µg/mL | > 50 µg/mL | > 50 µg/mL | > 50 µg/mL | > 50 µg/mL | – | –
C=C(C)[C@@H]1CCC(C)=C[C@H]1c1c(OCCCCN(CC)CC)cc(CCCCC)cc1OCCCCN(CC)CC | > 200 µg/mL | > 50 µg/mL | – | – | 50 µg/mL (≈ 87.9 µM) | 12.5 µg/mL (≈ 22 µM) | 6.25 µg/mL (≈ 11 µM) | 6.25 µg/mL (≈ 11 µM) | 50 µg/mL (≈ 87.9 µM) | > 50 µg/mL | > 50 µg/mL | > 50 µg/mL | – | –
C=C(C)[C@@H]1CCC(C)=C[C@H]1c1c(OCCCCCNC(=N)N)cc(CCCCC)cc1OCCCCCNC(=N)N | 60.5 µg/mL | 3.12 µg/mL (≈ 5.49 µM) | – | – | 1.56 µg/mL (≈ 2.74 µM) | 0.78 µg/mL (≈ 1.37 µM) | 1.56 µg/mL (≈ 2.74 µM) | 3.12 µg/mL (≈ 5.49 µM) | 3.12 µg/mL (≈ 5.49 µM) | 3.12 µg/mL (≈ 5.49 µM) | 25 µg/mL (≈ 43.9 µM) | 3.12 µg/mL (≈ 5.49 µM) | – | –
C=C(C)[C@@H]1CCC(C)=C[C@H]1c1c(OCCCCCCCCCCN)cc(CCCCC)cc1OCCCCCCCCCCN | > 200 µg/mL | > 50 µg/mL | – | – | > 50 µg/mL | > 50 µg/mL | > 50 µg/mL | > 50 µg/mL | > 50 µg/mL | > 50 µg/mL | > 50 µg/mL | > 50 µg/mL | – | –
C=C(C)[C@@H]1CCC(C)=C[C@H]1c1c(OCCCCN(CCO)CCO)cc(CCCCC)cc1OCCCCN(CCO)CCO | > 200 µg/mL | 100 µg/mL (≈ 158 µM) | – | – | 25 µg/mL (≈ 39.5 µM) | 25 µg/mL (≈ 39.5 µM) | 25 µg/mL (≈ 39.5 µM) | 25 µg/mL (≈ 39.5 µM) | 50 µg/mL (≈ 79 µM) | > 50 µg/mL | > 50 µg/mL | 50 µg/mL (≈ 79 µM) | – | –
C=C(C)[C@@H]1CCC(C)=C[C@H]1c1c(OCCCCCCN)cc(CCCCC)cc1OCCCCCCN | 59.7 µg/mL | 3.12 µg/mL (≈ 6.09 µM) | – | – | 1.56 µg/mL (≈ 3.04 µM) | 0.78 µg/mL (≈ 1.52 µM) | 1.56 µg/mL (≈ 3.04 µM) | 1.56 µg/mL (≈ 3.04 µM) | 3.12 µg/mL (≈ 6.09 µM) | 3.12 µg/mL (≈ 6.09 µM) | > 50 µg/mL | 0.78 µg/mL (≈ 1.52 µM) | – | –
CCn1cc(C(=O)O)c(=O)c2cc(F)c(N3CCNCC3)cc21 [NORFLOXACIN] | – | – | 128 | – | – | – | – | – | – | – | – | – | – | –
C=C(C)[C@@H]1CCC(C)=C[C@H]1c1c(OCCCCCCCCCCNC(=N)N)cc(CCCCC)cc1OCCCCCCCCCCNC(=N)N | > 200 µg/mL | > 50 µg/mL | – | – | > 50 µg/mL | 50 µg/mL (≈ 70.5 µM) | > 50 µg/mL | 50 µg/mL (≈ 70.5 µM) | > 50 µg/mL | > 50 µg/mL | > 50 µg/mL | > 50 µg/mL | – | –
C=C(C)[C@@H]1CCC(C)=C[C@H]1c1c(OCCCCCCNC(=N)N)cc(CCCCC)cc1OCCCCCCNC(=N)N | 72.6 µg/mL | 12.5 µg/mL (≈ 20.9 µM) | – | – | 25 µg/mL (≈ 41.9 µM) | 1.56 µg/mL (≈ 2.61 µM) | 1.56 µg/mL (≈ 2.61 µM) | 0.78 µg/mL (≈ 1.31 µM) | 12.5 µg/mL (≈ 20.9 µM) | 12.5 µg/mL (≈ 20.9 µM) | > 50 µg/mL | > 50 µg/mL | – | –
NC[C@H]1O[C@H](O[C@H]2[C@H](O)[C@@H](O[C@H]3O[C@H](CO)[C@@H](O)[C@H](N)[C@H]3O)[C@H](N)C[C@@H]2N)[C@H](N)C[C@@H]1O [TOBRAMYCIN] | – | – | – | – | – | – | – | – | – | – | – | – | 4.64 log10FFU/ml | 5.21 log10FFU/ml
C=C(C)[C@@H]1CCC(C)=C[C@H]1c1c(OCCCN)cc(CCCCC)cc1OCCCN | > 200 µg/mL | 6.25 µg/mL (≈ 14.6 µM) | – | – | 6.25 µg/mL (≈ 14.6 µM) | 6.25 µg/mL (≈ 14.6 µM) | 6.25 µg/mL (≈ 14.6 µM) | 6.25 µg/mL (≈ 14.6 µM) | 12.5 µg/mL (≈ 29.2 µM) | 6.25 µg/mL (≈ 14.6 µM) | > 50 µg/mL | 12.5 µg/mL (≈ 29.2 µM) | – | –
C=C(C)[C@@H]1CCC(C)=C[C@H]1c1c(OCC(=O)N[C@@H](CCCCN)C(=O)OC)cc(CCCCC)cc1OCC(=O)N[C@@H](CCCCN)C(=O)OC | 116 µg/mL | 50 µg/mL (≈ 69.9 µM) | – | – | 50 µg/mL (≈ 69.9 µM) | 25 µg/mL (≈ 35 µM) | 25 µg/mL (≈ 35 µM) | 25 µg/mL (≈ 35 µM) | 50 µg/mL (≈ 69.9 µM) | 50 µg/mL (≈ 69.9 µM) | > 50 µg/mL | > 50 µg/mL | – | –
C=C(C)[C@@H]1CCC(C)=C[C@H]1c1c(OCCCCNC)cc(CCCCC)cc1OCCCCNC | 107 µg/mL | 50 µg/mL (≈ 103 µM) | – | – | 25 µg/mL (≈ 51.6 µM) | 3.12 µg/mL (≈ 6.45 µM) | 3.12 µg/mL (≈ 6.45 µM) | 3.12 µg/mL (≈ 6.45 µM) | 25 µg/mL (≈ 51.6 µM) | 25 µg/mL (≈ 51.6 µM) | > 50 µg/mL | 50 µg/mL (≈ 103 µM) | – | –
C=C(C)[C@@H]1CCC(C)=C[C@H]1c1c(OCC(=O)O)cc(CCCCC)cc1OCC(=O)O | > 200 µg/mL | > 50 µg/mL | – | – | > 50 µg/mL | > 50 µg/mL | > 50 µg/mL | > 50 µg/mL | > 50 µg/mL | > 50 µg/mL | > 50 µg/mL | > 50 µg/mL | – | –
